Assay [1] concerns auricular oedema induced by TPA in BALB/c mice. In words: Inhibition test of auricular oedema induced by single application of TPA in mouse. Type of assay: in vivo. Particulars: 1 w/v % solution applied topically to ear 1 hour before TPA, auricle thickness 6 hours after TPA, read-out: Auricular oedema inhibition rate (%). The method, then: Inhibition Test of Auricular Oedema Induced by Single Application of TPA (12-O-tetradecanoylphorbol-13-acetate) in Mouse (In Vivo Efficacy Test Based on TNF-α-Related Cutaneous Inflammation)
Auricular oedema was induced by applying 54 μmol/L TPA-acetone solution on both the inner and outer sides of the left ear of BALB/c mice (application volume of 54 μmol/L TPA-acetone solution is 10 μL for each side of the left ear (i.e. 1.08 nmol TPA/auricle)). For a non-induced group, acetone was similarly applied instead of the 54 μmol/L TPA-acetone solution. The test substance was dissolved and prepared in a 1 w/v % solution of acetone containing 10 vol % DMSO (topical administration vehicle), then the test solution was applied onto both the inner and outer sides of the left ear of the mice (application volume of this test solution is 10 μL for each side of the left ear) 1 hour before the TPA application. For a control group, the topical administration vehicle was similarly applied instead of the test substance solution. For an etanercept group, 0.2 mL of a 5 mg/mL etanercept solution was intravenously administered (1 mg/mouse) the day before TPA application and 1.5 hours before TPA application. For a human IgG (hIgG) group (etanercept control group), 0.2 mL of a 5 mg/mL hIgG solution was intravenously administered (1 mg/mouse). Auricle thickness was measured under ether anesthesia the day before TPA application and 6 hours after TPA application for evaluation of the auricular oedema inhibition effect of the test substance based on the increase in auricle thickness as an index.
The auricular oedema inhibition rate (%) of the test substance was calculated based on the following formula using (A) the average value of the increase in auricular thickness of the group administered with the test substance, (B) the average value of the increase in auricular thickness of the non-induced group, and (C) the average value of the increase in auricular thickness of the control group. […]

The target of assay [2] is TACE (Homo sapiens (Human), UniProt P78536). The assay is described as follows: TACE inhibition test (in vitro). The class given is biochemical. Particulars: fluorescent synthetic substrate, 37° C., 1.5 hours. The method in brief:
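Recombinant enzyme (cDNA from THP-1 cells, expressed in mammalian or insect cells) with quenched substrate Nma-Leu-Ala-Gln-Ala-Val-Arg-Ser-Ser-Lys(Dnp)-D-Arg-NH2. Incubated 1.5 h at 37 °C; fluorescence read at ex 355/em 460 nm; IC50 from inhibition rate.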

The values below come from US10000476B2, “Pyridone derivative, pharmaceutical containing the same and methods of use thereof” (KAKEN PHARMACEUTICAL CO., LTD., priority 2011, dated 2018).

Molecules are shown by their SMILES.

Chain of TACE (P78536 215-824): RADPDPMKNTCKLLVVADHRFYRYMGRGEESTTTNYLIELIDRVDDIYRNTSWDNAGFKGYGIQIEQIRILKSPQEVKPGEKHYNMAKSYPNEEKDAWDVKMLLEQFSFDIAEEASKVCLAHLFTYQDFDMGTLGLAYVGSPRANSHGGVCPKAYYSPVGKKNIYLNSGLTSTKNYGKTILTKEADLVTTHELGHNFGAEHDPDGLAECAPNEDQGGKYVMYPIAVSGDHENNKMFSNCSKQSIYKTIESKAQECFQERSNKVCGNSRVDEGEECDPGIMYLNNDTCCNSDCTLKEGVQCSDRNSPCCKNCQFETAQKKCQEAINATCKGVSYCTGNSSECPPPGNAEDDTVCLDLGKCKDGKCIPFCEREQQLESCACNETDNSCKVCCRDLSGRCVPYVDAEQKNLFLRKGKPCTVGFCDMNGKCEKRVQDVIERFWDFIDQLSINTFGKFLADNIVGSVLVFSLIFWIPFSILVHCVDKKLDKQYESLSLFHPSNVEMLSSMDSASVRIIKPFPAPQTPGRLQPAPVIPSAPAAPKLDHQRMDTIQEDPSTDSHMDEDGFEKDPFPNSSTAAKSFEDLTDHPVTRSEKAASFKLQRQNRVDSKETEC

Consider `Cc1cccn(CC2(c3ccc(Oc4ccc(F)cc4)cc3)NC(=O)NC2=O)c1=O` (stereo not drawn) [Compound I-85], for which the inhibition in vivo at 10000 µg/mL in assay [1] was 78%. This compound registered an IC50 in assay [2] of less than 100 nM.
The matching figures for `Cc1cc(C2(Cn3cccc(C)c3=O)NC(=O)NC2=O)ccc1OC1C=CCCC1` (stereo not drawn) [Compound I-38]: 41% and less than 100 nM.
For `Cc1cccn(CC2(c3ccc(Oc4cccc(F)c4)cc3)NC(=O)NC2=O)c1=O` (stereo not drawn) [Compound I-84], the inhibition in vivo at 10000 µg/mL in assay [1] came out at 53%. The compound further registered an IC50 in assay [2] of less than 100 nM.
Take `Cc1cccn(CC2(c3ccc(OC4C=CCCC4)cc3)NC(=O)NC2=O)c1=O` (stereo not drawn) [Compound I-36, 5-[4-(cyclohex-2-en-1-yloxy)phenyl]-5-[(3-methyl-2-oxopyridin-1(2H)-yl)methyl]imidazolidine-2,4-dione]: the inhibition in vivo at 10000 µg/mL in assay [1] came out at 58%. The compound further gave an IC50 in assay [2] of less than 100 nM.
The matching figures for `Cc1cccn(CC2(c3ccc(OC4CCCCC4)cc3)NC(=O)NC2=O)c1=O` (stereo not drawn) [Compound I-37, 5-[4-(cyclohexyloxy)phenyl]-5-[(3-methyl-2-oxopyridin-1(2H)-yl)methyl]imidazolidine-2,4-dione]: 78% and less than 100 nM.
For `Cc1cccn(CC2(c3ccc(Oc4ccc(Cl)cc4)cc3)NC(=O)NC2=O)c1=O` (stereo not drawn) [Compound I-130], in assay [1], the inhibition in vivo at 10000 µg/mL was 44%.
With `Cc1cc(C2(Cn3cccc(C)c3=O)NC(=O)NC2=O)cc(C)c1OC1CCCC1` (stereo not drawn) [Compound I-129], the inhibition in vivo at 10000 µg/mL in assay [1] amounted to 71%. In assay [2], this compound had a half-maximal inhibitory concentration (IC50) of less than 100 nM.
As to `Cc1cccn(CC2(c3ccc(Sc4ccccc4)cc3)NC(=O)NC2=O)c1=O` (stereo not drawn) [Compound I-102], the inhibition in vivo at 10000 µg/mL in assay [1] is 50%. This compound had an IC50 in assay [2] of less than 100 nM.

By IC50 is commonly meant the concentration that gives 50% inhibition. Higher therefore signals weaker potency in that assay.
